Values quoted from earlier work, collected in patent US20240180809A1, “METHOD FOR DYEING KERATIN MATERIAL, INCLUDING THE USE OF AN ORGANIC C1-C6 ALKOXY SILANE, A DYEING COMPOUND, AND A HEAT TREATMENT” (Henkel AG & Co. KGaA, priority 2021, published 2024).

| Compound | solubility in water (25° C.) | other results |
| --- | --- | --- |
| CCN(Cc1cccc(S(=O)(=O)[O-])c1)c1ccc(C(=C2C=CC(=[N+](CC)Cc3cccc(S(=O)(=O)[O-])c3)C=C2)c2ccccc2S(=O)(=O)[O-])cc1.[Na+].[Na+] [Acid Blue 9] |  | water solubility (25° C.): more than 20 wt. % |
| O=S(=O)([O-])c1ccc(N=Nc2c(O)ccc3ccccc23)cc1.[Na+] [Acid Orange 7, sodium salt of 4-[(2-hydroxy-1-naphthyl)azo]benzene sulphonate] | more than 7 g/L |  |
| Nc1cc(S(=O)(=O)[O-])cc2cc(S(=O)(=O)[O-])c(N=Nc3ccccc3)c(O)c12.[Na+].[Na+] [Acid Red 33, disodium salt of 5-amino-4-hydroxy-3-(phenylazo)-naphthalene-2,7-disulfonate] | 2.5 mg/mL |  |
| O=C([O-])c1c(Cl)c(Cl)c(Cl)c(Cl)c1-c1c2cc(Br)c(=O)c(Br)c-2oc2c(Br)c([O-])c(Br)cc12.[Na+].[Na+] [Acid Red 92, disodium salt of 3,4,5,6-tetrachloro-2-(1,4,5,8-tetrabromo-6-hydroxy-3-oxanthene-9-yl) benzoic acid] | greater than 10 g/L |  |
| O=C([O-])C1=NN(c2ccc(S(=O)(=O)[O-])cc2)C(=O)C1N=Nc1ccc(S(=O)(=O)[O-])cc1.[Na+].[Na+].[Na+] (stereo not drawn) [Acid Yellow 23, trisodium salt of 4,5-dihydro-5-oxo-1-(4-sulfophenyl)-4-((4-sulfophenyl)azo)-1H-pyrazole-3-carboxylic acid] |  | solubility in water (in words) (in water at 25° C.): readily soluble |
| mixture of the sodium salts of mono- and sis-sulfonic acids of 2-(2-quinolyl)-1H-indene-1,3(2H)-dione [Acid Yellow 3] | 20 mg/mL |  |
